A short description of this series: chemical recovery from spiked human plasma; higher = better extraction. The conditions noted are these: pooled human plasma.
[1] abbreviates: extraction method: solvent precipitation (ACN + hexane).
[2] abbreviates: extraction method: PES+SPE (3 d PDMS equilibration then HLB SPE).
[3] abbreviates: extraction method: SPE only (HLB 96-well).
[4] abbreviates: extraction method: SPE only (HLB 96-well), PES comparison experiment.

The structures appear in SMILES notation. Where a name gives a salt, the structure may show the parent alone. ± gives the standard deviation.

Consider `N=C(NCCCCCCNC(=N)NC(=N)Nc1ccc(Cl)cc1)NC(=N)Nc1ccc(Cl)cc1` [Chlorohexidine], for which, under setting [1], the chemical recovery was 54.5 ± 1.9%.

For the compound `COc1nc(C)nc(NC(=O)NS(=O)(=O)c2ccccc2Cl)n1` [Chlorosulfuron], the chemical recovery under setting [1] worked out at 67.9 ± 3.4%.

For the compound `N#Cc1c(O)c(Cl)c(Cl)c(C#N)c1Cl` [Chlorothalonil-4-hydroxy], the chemical recovery reads like this: under setting [2], 37.1 ± 5.2%; under setting [3], 32.4 ± 3%; under setting [4], 33.8 ± 7.8%.

As for `N#Cc1cc(Cl)c(O)c(Cl)c1` [Chloroxynil], the chemical recovery by setting is: under setting [2], 59 ± 2.5%; under setting [3], 46.1 ± 5.2%; under setting [1], 74.3 ± 3.8%.

`CN(C)CCC(c1ccc(Cl)cc1)c1ccccn1` (stereo not drawn) [Chlorpheniramine]: the chemical recovery amounted to 0.333 ± 0.13% under setting [2], 33.5 ± 3.4% under setting [3] and 54 ± 5.6% under setting [1].

In the case of `CCCNC(=O)NS(=O)(=O)c1ccc(Cl)cc1` [Chlorpropamide], the chemical recovery under setting [2] was 55.3 ± 5%, the chemical recovery under setting [3] was determined as 47.5 ± 3.5% and the chemical recovery under setting [1] was found to be 76.8 ± 4.6%.

For the compound `CC(C)OC(=O)Nc1cccc(Cl)c1` [Chlorpropham], the chemical recovery by setting is: under setting [2], 37.9 ± 13%; under setting [3], 41.5 ± 2.7%; under setting [1], 43.8 ± 4.5%.

Compound `CCOP(=S)(OCC)Oc1nc(Cl)c(Cl)cc1Cl` [Chlorpyrifos] showed a chemical recovery under setting [4] of 33.3 ± 7.2%.

Compound `C[C@H](CCC(=O)O)[C@H]1CC[C@H]2[C@@H]3[C@H](O)C[C@@H]4C[C@H](O)CC[C@]4(C)[C@H]3C[C@H](O)[C@]12C` [Cholic-acid] returned a chemical recovery under setting [3] of 48.4 ± 3.9%.

The compound `c1ccc2c(c1)ccc1c3ccccc3ccc21` [Chrysene] came in with a chemical recovery under setting [3] of 10.9 ± 2.5%.

For `CN/C(=N\CCSCc1nc[nH]c1C)NC#N` [Cimetidine], the chemical recovery under setting [1] was 54.8 ± 1.7%.

`CCCC1CC(C(=O)NC(C(C)Cl)C2OC(SC)C(O)C(O)C2O)N(C)C1` (stereo not drawn) [Clindamycin]: the chemical recovery runs as follows: under setting [2], 36.7 ± 3.7%; under setting [3], 37.9 ± 2.5%; under setting [1], 65.5 ± 3.8%.

In turn, `Clc1ccccc1C(c1ccccc1)(c1ccccc1)n1ccnc1` [Clotrimazole] registered a chemical recovery under setting [4] of 56.3 ± 11%.

With `COc1cc2c(c(OC)c1OC)-c1ccc(OC)c(=O)cc1[C@@H](NC(C)=O)CC2` [Colchicine], the chemical recovery turned out to be 48.5 ± 3.6% under setting [2], 45 ± 3.9% under setting [3] and 70 ± 2.5% under setting [1].

Under setting [3], `Cc1ccc(-c2c(Cl)nc(C#N)n2S(=O)(=O)N(C)C)cc1` [Cyazofamid] showed a chemical recovery of 41 ± 2%.

`O=C1CCCCCCCCCCC1` [Cyclododecanone]: under setting [3], the chemical recovery stood at 4.5 ± 3.9%.

`NC1CCCCC1` [Cyclohexylamine]: the chemical recovery under setting [2] is 2.9 ± 1.6%, the chemical recovery under setting [3] amounted to 2.07 ± 3.6% and the chemical recovery under setting [1] is 35.9 ± 9.5%.

With `O=C(c1ccccc1)C1CCCCC1` [Cyclohexylphenylketone], the chemical recovery under setting [3] worked out at 9.88 ± 8.6%.

On to `OC[C@@H](O)[C@@H](O)[C@H](O)[C@@H](O)CO` [D-Glucitol], for which, under setting [3], the chemical recovery was 3.85 ± 1.9%.

With `CCN(CC)C(=O)c1cccc(C(=O)O)c1` [DEET-carboxylic-acid], the chemical recovery is 42.3 ± 4.4% under setting [2], 43.9 ± 4.5% under setting [3] and 68.1 ± 5.1% under setting [1].

Regarding `CCN(CC)C(=O)c1cccc(C)c1` [DEET], the chemical recovery is, setting by setting: under setting [3], 30.1 ± 3%; under setting [1], 52.6 ± 4.4%.

With `CC(C)CCCCCCOC(=O)C1CCCCC1C(=O)OCCCCCCC(C)C` (stereo not drawn) [DINCH], the chemical recovery reads like this: under setting [3], 6.04 ± 3.4%; under setting [4], 4.77 ± 1.6%.

Turning to `O=C(O)c1cc(SSc2ccc([N+](=O)[O-])c(C(=O)O)c2)ccc1[N+](=O)[O-]` [DTNB], the chemical recovery is, setting by setting: under setting [2], 0.204 ± 0.051%; under setting [1], 0.0596 ± 0.028%.

Under setting [4], `C1CCC2CCCCC2C1` (stereo not drawn) [Decahydronaphthalene] returned a chemical recovery of 3.14 ± 1.3%.

For the compound `CCCCCCCCCCOS(=O)(=O)O` [Decylsulfate], the chemical recovery reads like this: under setting [3], 18.8 ± 4.3%; under setting [4], 30.8 ± 9%; under setting [1], 50.4 ± 1.6%.

Take `CC(C)c1ccc2c(c1)CC[C@H]1[C@](C)(C(=O)O)CCC[C@]21C` [Dehydroabietic-acid]: the chemical recovery under setting [3] stood at 29.7 ± 1.9%.

As for `CC[S+]([O-])CCSP(=O)(OC)OC` (stereo not drawn) [Demeton-S-methyl-sulfoxide], the chemical recovery reads like this: under setting [2], 35.2 ± 3.8%; under setting [3], 30.2 ± 2.2%; under setting [1], 42.7 ± 12%.

With `C[C@H](CCC(=O)O)[C@H]1CC[C@H]2[C@@H]3CC[C@@H]4C[C@H](O)CC[C@]4(C)[C@H]3C[C@H](O)[C@]12C` [Deoxycholic-acid], the chemical recovery reads like this: under setting [3], 38.5 ± 8.1%; under setting [1], 75.8 ± 6.6%.

As to `CNCCCN1c2ccccc2CCc2ccccc21` [Desipramine], the chemical recovery is 1.49 ± 0.66% under setting [2], 35.8 ± 2.3% under setting [3] and 62.7 ± 6.1% under setting [1].

For `CCNc1nc(N)nc(Cl)n1` [Desisopropylatrazine], the chemical recovery under setting [2] came out at 50.7 ± 4.7% and the chemical recovery under setting [3] amounted to 38.9 ± 2.4%.

Take `COc1ccc2c(c1)[C@]13CCCC[C@@H]1[C@H](C2)N(C)CC3` [Dextromethorphan]: the chemical recovery is, setting by setting: under setting [2], 0.431 ± 0.16%; under setting [3], 39.3 ± 3.3%; under setting [1], 70.1 ± 5.1%.

For `CCCCOP(=O)(O)OCCCC` [Di-n-butyl-phosphate], the chemical recovery is 40.8 ± 6.1% under setting [2] and 40.5 ± 3.9% under setting [3].

`CCCCCOC(=O)c1ccccc1C(=O)OCCCCC` [Di-n-pentylphthalate] came in with a chemical recovery under setting [3] of 29.6 ± 6.2%.

In turn, `CC(=O)NCCNC(C)=O` [Diacetylethylenediamine] displayed a chemical recovery under setting [2] of 0.534 ± 0.055% and a chemical recovery under setting [3] of 0.155 ± 0.14%.

Regarding `c1ccc2c(c1)sc1ccccc12` [Dibenzothiophene], under setting [3], the chemical recovery came to 16.2 ± 6.1%.

For the compound `CCCCOC(=O)CCCCCCCCC(=O)OCCCC` [Dibutyl-sebacate], the chemical recovery under setting [3] amounted to 28.7 ± 6.6%.

In turn, `COc1c(Cl)ccc(Cl)c1C(=O)O` [Dicamba] had a chemical recovery under setting [2] of 42.3 ± 2.6% and a chemical recovery under setting [3] of 37.9 ± 3.7%.

On to `Oc1cc(Cl)ccc1Oc1ccc(Cl)cc1` [Diclosan], for which the chemical recovery reads like this: under setting [3], 32.1 ± 2.6%; under setting [1], 41.7 ± 3.2%.

Consider `COP(=O)(OC)O/C(C)=C/C(=O)N(C)C` [Dicrotophos], for which the chemical recovery under setting [2] stood at 38.5 ± 3.5%, the chemical recovery under setting [3] came to 37.3 ± 0.93% and the chemical recovery under setting [1] was 59.3 ± 8.9%.

On to `O=C(CC(C(=O)OC1CCCCC1)S(=O)(=O)O)OC1CCCCC1` (stereo not drawn) [Dicyclohexyl sulfosuccinate], for which the chemical recovery is, setting by setting: under setting [2], 37.7 ± 3.3%; under setting [3], 27.6 ± 3.1%; under setting [4], 37.1 ± 6.9%; under setting [1], 71.8 ± 3.4%.

Take `O=C(CC(C(=O)OC1CCCCC1)S(=O)(=O)O)OC1CCCCC1` (stereo not drawn) [Dicyclohexyl-sulfosuccinate]: the chemical recovery under setting [2] was determined as 57.7 ± 5.7% and the chemical recovery under setting [3] came out at 44.3 ± 2.2%.

For the compound `C1CCC(NC2CCCCC2)CC1` [Dicyclohexylamine], the chemical recovery runs as follows: under setting [3], 35.2 ± 2.1%; under setting [1], 53.8 ± 6.1%.

As to `O=C(NC1CCCCC1)NC1CCCCC1` [Dicyclohexylurea], the chemical recovery under setting [2] was found to be 54.4 ± 4.7%, the chemical recovery under setting [3] came out at 56.9 ± 0.74% and the chemical recovery under setting [1] was determined as 78.6 ± 1.8%.

For `CCCCCCCCCC[N+](C)(C)CCCCCCCCCC` [Didecyldimethylammonium], the chemical recovery under setting [3] turned out to be 67.1 ± 21%.

In the case of `COCCOCCO` [Diethyleneglycolmonomethylether], the chemical recovery under setting [3] turned out to be 1.78 ± 2.6%.

For `O=C(Nc1ccc(F)cc1F)c1cccnc1Oc1cccc(C(F)(F)F)c1` [Diflufenican], the chemical recovery is, setting by setting: under setting [3], 31 ± 3.5%; under setting [4], 35.6 ± 6.6%; under setting [1], 52.3 ± 4.8%.

For `COCCOCCOC` [Diglyme], the chemical recovery under setting [3] stood at 11.5 ± 3.1%.

Turning to `CCCCCCOC(=O)c1ccccc1C(=O)OCCCCCC` [Dihexyl-phthalate], the chemical recovery under setting [3] came out at 20.6 ± 3.2%.

`CC(=O)CCC1C(C)=CCCC1(C)C` (stereo not drawn) [Dihydro-alpha-ionone]: the chemical recovery under setting [3] was 3.54 ± 6.1%.

Consider `CC(C)CCCCOC(=O)c1ccccc1C(=O)OCCCCC(C)C` [Diisoheptyl-phthalate], for which the chemical recovery runs as follows: under setting [3], 12.9 ± 3.1%; under setting [1], 103 ± 14%.

For the compound `CC(C)CCCCCCOC(=O)c1ccccc1C(=O)OCCCCCCC(C)C` [Diisononyl-phthalate], the chemical recovery under setting [3] worked out at 23.4 ± 7.7%.

Consider `COC(=O)c1ccc(C(=O)OC)cc1` [Dimethyl-terephthalate], for which the chemical recovery under setting [1] was 64.5 ± 14%.

For the compound `Cc1c(N(C)C)c(=O)n(-c2ccccc2)n1C` [Dimethylaminophenazone], the chemical recovery by setting is: under setting [2], 6.91 ± 1.9%; under setting [3], 39.3 ± 2.3%; under setting [1], 73.8 ± 2%.

As for `COC(=O)c1ccccc1C(=O)OC` [Dimethylphthalate], the chemical recovery reads like this: under setting [2], 46 ± 3.9%; under setting [1], 67.3 ± 4.1%.

For `CC(C1=C(CCN(C)C)Cc2ccccc21)c1ccccn1` (stereo not drawn) [Dimetindene], the chemical recovery by setting is: under setting [2], 0.267 ± 0.076%; under setting [3], 24.1 ± 2.6%; under setting [1], 58.5 ± 5.4%.

`CN/C(=N/CC1CCOC1)N[N+](=O)[O-]` (stereo not drawn) [Dinotefuran]: the chemical recovery under setting [3] was 27.4 ± 2.9% and the chemical recovery under setting [1] was determined as 76.3 ± 3.7%.

As for `CC(C)(C)c1cc([N+](=O)[O-])cc([N+](=O)[O-])c1O` [Dinoterb], the chemical recovery under setting [2] worked out at 48.5 ± 5%.

`CCCCC(CC)COC(=O)CC(C(=O)OCC(CC)CCCC)S(=O)(=O)O` (stereo not drawn) [Dioctylsulfosuccinate] registered a chemical recovery under setting [3] of 26.5 ± 1.6%.

For `CCN(CCC#N)c1ccc(N=Nc2c(Br)cc([N+](=O)[O-])cc2Br)cc1` [Disperse-Orange-61], the chemical recovery under setting [3] turned out to be 39.7 ± 11% and the chemical recovery under setting [1] is 80.2 ± 8.3%.

Turning to `CCOP(=S)(OCC)SCCSCC` [Disulfoton], the chemical recovery under setting [3] turned out to be 4.52 ± 2%.

Take `O=C1CCCCCCCCCCCN1` [Dodecane-12-lactam]: the chemical recovery reads like this: under setting [2], 47.4 ± 4.3%; under setting [3], 53.4 ± 0.92%; under setting [1], 66.7 ± 1.7%.

Under setting [3], `CCCCCCCCCCCCOS(=O)(=O)O` [Dodecyl sulfate] showed a chemical recovery of 33.8 ± 0.79%.

`Cc1ccc(O)c(-n2nc3ccccc3n2)c1` [Drometrizole]: the chemical recovery was 15.4 ± 9.1% under setting [3] and 54.1 ± 4.6% under setting [1].

On to `CNCC[C@H](Oc1cccc2ccccc12)c1cccs1` [Duloxetine], for which the chemical recovery worked out at 1.6 ± 0.45% under setting [2], 34.8 ± 2.4% under setting [3] and 59.7 ± 5.1% under setting [1].
